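Following 48 hours of exposure in 96-well plates, responses at five concentrations were used to interpolate endpoints linearly. TGI: concentration producing complete growth inhibition.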
Experiments:
Test in all cases: DTP human tumour cell line panel, 48 h
UO-31 renal = system: UO-31 renal
CCRF-CEM leukemia = system: CCRF-CEM leukemia
HL-60(TB) leukemia = system: HL-60(TB) leukemia
SF-268 CNS = system: SF-268 CNS
MDA-N = system: MDA-N
OVCAR-3 ovarian = system: OVCAR-3 ovarian
SW-620 colon = system: SW-620 colon
EKVX NSCLC = system: EKVX NSCLC
IGROV1 ovarian = system: IGROV1 ovarian
HT29 colon = system: HT29 colon
ACHN renal = system: ACHN renal
NCI-H460 lung = system: NCI-H460 lung
NCI-H522 lung = system: NCI-H522 lung
SF-295 CNS = system: SF-295 CNS
LOX IMVI melanoma = system: LOX IMVI melanoma
HCT-116 colon = system: HCT-116 colon
NCI-H226 lung = system: NCI-H226 lung
OVCAR-5 ovarian = system: OVCAR-5 ovarian
SNB-19 CNS = system: SNB-19 CNS
HOP-92 NSCLC = system: HOP-92 NSCLC
HCT-15 colon = system: HCT-15 colon
KM12 colon = system: KM12 colon
NCI-H23 lung = system: NCI-H23 lung
COLO 205 colon = system: COLO 205 colon
SK-MEL-2 melanoma = system: SK-MEL-2 melanoma
MDA-MB-435 = system: MDA-MB-435
UACC-62 melanoma = system: UACC-62 melanoma
MDA-MB-231 breast = system: MDA-MB-231 breast
SK-OV-3 ovarian = system: SK-OV-3 ovarian
RPMI-8226 leukemia = system: RPMI-8226 leukemia
NCI/ADR-RES ovarian = system: NCI/ADR-RES ovarian
A549 NSCLC = system: A549 NSCLC
SNB-75 CNS = system: SNB-75 CNS
DU-145 prostate = system: DU-145 prostate
OVCAR-8 ovarian = system: OVCAR-8 ovarian
TK-10 renal = system: TK-10 renal
UACC-257 melanoma = system: UACC-257 melanoma
A498 renal = system: A498 renal
HOP-62 NSCLC = system: HOP-62 NSCLC
SR leukemia = system: SR leukemia
MOLT-4 leukemia = system: MOLT-4 leukemia
RXF 393 renal = system: RXF 393 renal
HS 578T breast = system: HS 578T breast
K-562 leukemia = system: K-562 leukemia
OVCAR-4 ovarian = system: OVCAR-4 ovarian
PC-3 prostate = system: PC-3 prostate
M14 melanoma = system: M14 melanoma
SF-539 CNS = system: SF-539 CNS
HCC-2998 colon = system: HCC-2998 colon
U251 CNS = system: U251 CNS
T-47D breast = system: T-47D breast
CAKI-1 renal = system: CAKI-1 renal
SN12C renal = system: SN12C renal
SK-MEL-5 melanoma = system: SK-MEL-5 melanoma
SK-MEL-28 melanoma = system: SK-MEL-28 melanoma
786-0 renal = system: 786-0 renal

## CC1(C)[C@@H]2CC[C@@]1(C)[C@H](O)[C@@H]2SCc1ccccc1
UO-31 renal
  TGI: 35.4 µM
CCRF-CEM leukemia
  TGI: 96.6 µM
HL-60(TB) leukemia
  TGI: 54.3 µM
SF-268 CNS
  TGI: 32.6 µM
MDA-N
  TGI: 43.4 µM
OVCAR-3 ovarian
  TGI: 31.8 µM
SW-620 colon
  TGI: 74.9 µM
EKVX NSCLC
  TGI: 34.2 µM
IGROV1 ovarian
  TGI: 37.4 µM
HT29 colon
  TGI: 29.6 µM
ACHN renal
  TGI: 24 µM
NCI-H460 lung
  TGI: 39.9 µM
NCI-H522 lung
  TGI: 29.3 µM
SF-295 CNS
  TGI: 33 µM
LOX IMVI melanoma
  TGI: 36.6 µM
HCT-116 colon
  TGI: 44.4 µM
NCI-H226 lung
  TGI: 39.4 µM
OVCAR-5 ovarian
  TGI: 33.1 µM
SNB-19 CNS
  TGI: 31.7 µM
HOP-92 NSCLC
  TGI: 28.7 µM
HCT-15 colon
  TGI: 29.7 µM
KM12 colon
  TGI: 36.4 µM
NCI-H23 lung
  TGI: 29.1 µM
COLO 205 colon
  TGI: 34.1 µM
SK-MEL-2 melanoma
  TGI: 33.7 µM
MDA-MB-435
  TGI: 33.2 µM
UACC-62 melanoma
  TGI: 22.2 µM
MDA-MB-231 breast
  TGI: 33 µM
SK-OV-3 ovarian
  TGI: 44.9 µM
RPMI-8226 leukemia
  TGI: > 100 µM
NCI/ADR-RES ovarian
  TGI: 33 µM
A549 NSCLC
  TGI: 48.6 µM
SNB-75 CNS
  TGI: 49.1 µM
DU-145 prostate
  TGI: 40.6 µM
OVCAR-8 ovarian
  TGI: 37.2 µM
TK-10 renal
  TGI: 57.8 µM
UACC-257 melanoma
  TGI: 32.5 µM
A498 renal
  TGI: 0.0578 µM
HOP-62 NSCLC
  TGI: 33 µM
SR leukemia
  TGI: > 100 µM
MOLT-4 leukemia
  TGI: 49.7 µM
RXF 393 renal
  TGI: 33 µM
HS 578T breast
  TGI: 30.7 µM
K-562 leukemia
  TGI: > 100 µM
OVCAR-4 ovarian
  TGI: 26.6 µM
PC-3 prostate
  TGI: 50.4 µM
M14 melanoma
  TGI: 30.1 µM
SF-539 CNS
  TGI: 34.6 µM
HCC-2998 colon
  TGI: 36.6 µM
U251 CNS
  TGI: 31.7 µM
T-47D breast
  TGI: 62.8 µM
CAKI-1 renal
  TGI: 43.1 µM
SN12C renal
  TGI: 34.5 µM
SK-MEL-5 melanoma
  TGI: 29.1 µM
SK-MEL-28 melanoma
  TGI: 38.4 µM
786-0 renal
  TGI: 32.9 µM

Reference: PubChem BioAssay (NCI)
